Measured values: PubChem BioAssay (NCI)
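Growth conditions: 96-well plates. Treatment: test compound, 48 hours, 5 concentrations. Analysis: linear interpolation between bracketing concentrations; unreached endpoints set to highest concentration. GI50: concentration for 50% inhibition of growth. TGI marks complete inhibition of growth.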

What was measured:
Test in all cases: NCI tumour cell line growth inhibition, 48 h
NCI-H522 lung = test system: NCI-H522 lung
COLO 205 colon = test system: COLO 205 colon
SK-MEL-5 melanoma = test system: SK-MEL-5 melanoma
NCI/ADR-RES ovarian = test system: NCI/ADR-RES ovarian
DU-145 prostate = test system: DU-145 prostate
TK-10 renal = test system: TK-10 renal
MALME-3M melanoma = test system: MALME-3M melanoma
BT-549 breast = test system: BT-549 breast
SN12C renal = test system: SN12C renal
MDA-MB-231 breast = test system: MDA-MB-231 breast
HCC-2998 colon = test system: HCC-2998 colon
ACHN renal = test system: ACHN renal
MOLT-4 leukemia = test system: MOLT-4 leukemia
786-0 renal = test system: 786-0 renal
SF-295 CNS = test system: SF-295 CNS
HOP-92 NSCLC = test system: HOP-92 NSCLC
CAKI-1 renal = test system: CAKI-1 renal
NCI-H460 lung = test system: NCI-H460 lung
K-562 leukemia = test system: K-562 leukemia
OVCAR-5 ovarian = test system: OVCAR-5 ovarian
RXF 393 renal = test system: RXF 393 renal
EKVX NSCLC = test system: EKVX NSCLC
LOX IMVI melanoma = test system: LOX IMVI melanoma
M14 melanoma = test system: M14 melanoma
HS 578T breast = test system: HS 578T breast
SF-539 CNS = test system: SF-539 CNS
MDA-MB-435 = test system: MDA-MB-435
HCT-116 colon = test system: HCT-116 colon
OVCAR-8 ovarian = test system: OVCAR-8 ovarian
HCT-15 colon = test system: HCT-15 colon
MCF7 breast = test system: MCF7 breast
U251 CNS = test system: U251 CNS
CCRF-CEM leukemia = test system: CCRF-CEM leukemia
SNB-75 CNS = test system: SNB-75 CNS
PC-3 prostate = test system: PC-3 prostate
UACC-62 melanoma = test system: UACC-62 melanoma
KM12 colon = test system: KM12 colon
HL-60(TB) leukemia = test system: HL-60(TB) leukemia
A498 renal = test system: A498 renal
UACC-257 melanoma = test system: UACC-257 melanoma
IGROV1 ovarian = test system: IGROV1 ovarian
SNB-19 CNS = test system: SNB-19 CNS
HOP-62 NSCLC = test system: HOP-62 NSCLC
NCI-H23 lung = test system: NCI-H23 lung
SF-268 CNS = test system: SF-268 CNS
NCI-H226 lung = test system: NCI-H226 lung
A549 NSCLC = test system: A549 NSCLC
SK-MEL-28 melanoma = test system: SK-MEL-28 melanoma
T-47D breast = test system: T-47D breast
HT29 colon = test system: HT29 colon
SK-MEL-2 melanoma = test system: SK-MEL-2 melanoma
UO-31 renal = test system: UO-31 renal
OVCAR-4 ovarian = test system: OVCAR-4 ovarian
SK-OV-3 ovarian = test system: SK-OV-3 ovarian
SW-620 colon = test system: SW-620 colon
RPMI-8226 leukemia = test system: RPMI-8226 leukemia
OVCAR-3 ovarian = test system: OVCAR-3 ovarian

N#Cc1ccc(NC(=O)Nc2ccc(Oc3ccc(NC(=O)Nc4ccc(C#N)cc4)cc3)cc2)cc1
GI50 (NCI-H522 lung): 10.9 µM | TGI (NCI-H522 lung): 95.5 µM | GI50 (COLO 205 colon): 24.6 µM | TGI (COLO 205 colon): > 100 µM | GI50 (SK-MEL-5 melanoma): 20.2 µM | TGI (SK-MEL-5 melanoma): > 100 µM | GI50 (NCI/ADR-RES ovarian): 13 µM | TGI (NCI/ADR-RES ovarian): > 100 µM | GI50 (DU-145 prostate): 31.2 µM | TGI (DU-145 prostate): > 100 µM | GI50 (TK-10 renal): 23.2 µM | TGI (TK-10 renal): 89 µM | GI50 (MALME-3M melanoma): 3.28 µM | TGI (MALME-3M melanoma): 77.8 µM | GI50 (BT-549 breast): 3.48 µM | TGI (BT-549 breast): 24.2 µM | GI50 (SN12C renal): 25.3 µM | TGI (SN12C renal): > 100 µM | GI50 (MDA-MB-231 breast): 12.4 µM | TGI (MDA-MB-231 breast): > 100 µM | GI50 (HCC-2998 colon): 0.764 µM | TGI (HCC-2998 colon): 7.53 µM | GI50 (ACHN renal): 18.8 µM | TGI (ACHN renal): > 100 µM | GI50 (MOLT-4 leukemia): 1.12 µM | TGI (MOLT-4 leukemia): 37.7 µM | GI50 (786-0 renal): 10.5 µM | TGI (786-0 renal): 63.4 µM | GI50 (SF-295 CNS): 0.379 µM | TGI (SF-295 CNS): 13.6 µM | GI50 (HOP-92 NSCLC): 13.3 µM | TGI (HOP-92 NSCLC): 62.7 µM | GI50 (CAKI-1 renal): 20.8 µM | TGI (CAKI-1 renal): > 100 µM | GI50 (NCI-H460 lung): 3.24 µM | TGI (NCI-H460 lung): > 100 µM | GI50 (K-562 leukemia): 2.11 µM | TGI (K-562 leukemia): > 100 µM | GI50 (OVCAR-5 ovarian): 26.1 µM | TGI (OVCAR-5 ovarian): > 100 µM | GI50 (RXF 393 renal): 15.3 µM | TGI (RXF 393 renal): > 100 µM | GI50 (EKVX NSCLC): 10.3 µM | TGI (EKVX NSCLC): > 100 µM | GI50 (LOX IMVI melanoma): 15.7 µM | TGI (LOX IMVI melanoma): > 100 µM | GI50 (M14 melanoma): 28.3 µM | TGI (M14 melanoma): > 100 µM | GI50 (HS 578T breast): 7.49 µM | TGI (HS 578T breast): > 100 µM | GI50 (SF-539 CNS): 17.6 µM | TGI (SF-539 CNS): 59.4 µM | GI50 (MDA-MB-435): 17.1 µM | TGI (MDA-MB-435): > 100 µM | GI50 (HCT-116 colon): 4.02 µM | TGI (HCT-116 colon): > 100 µM | GI50 (OVCAR-8 ovarian): 14.4 µM | TGI (OVCAR-8 ovarian): > 100 µM | GI50 (HCT-15 colon): 18 µM | TGI (HCT-15 colon): > 100 µM | GI50 (MCF7 breast): 3.71 µM | TGI (MCF7 breast): > 100 µM | GI50 (U251 CNS): 4.85 µM | TGI (U251 CNS): 27.8 µM | GI50 (CCRF-CEM leukemia): 22.1 µM | TGI (CCRF-CEM leukemia): > 100 µM | GI50 (SNB-75 CNS): 4.14 µM | TGI (SNB-75 CNS): 24.4 µM | GI50 (PC-3 prostate): 25.6 µM | TGI (PC-3 prostate): > 100 µM | GI50 (UACC-62 melanoma): 11.1 µM | TGI (UACC-62 melanoma): > 100 µM | GI50 (KM12 colon): 11.2 µM | TGI (KM12 colon): > 100 µM | GI50 (HL-60(TB) leukemia): 1.17 µM | TGI (HL-60(TB) leukemia): 83.8 µM | GI50 (A498 renal): 15.9 µM | TGI (A498 renal): 61.2 µM | GI50 (UACC-257 melanoma): 29.1 µM | TGI (UACC-257 melanoma): > 100 µM | GI50 (IGROV1 ovarian): 30.4 µM | TGI (IGROV1 ovarian): > 100 µM | GI50 (SNB-19 CNS): 20 µM | TGI (SNB-19 CNS): 88.7 µM | GI50 (HOP-62 NSCLC): 3.06 µM | TGI (HOP-62 NSCLC): 20.6 µM | GI50 (NCI-H23 lung): 6.53 µM | TGI (NCI-H23 lung): 56.5 µM | GI50 (SF-268 CNS): 10.8 µM | TGI (SF-268 CNS): > 100 µM | GI50 (NCI-H226 lung): 23.1 µM | TGI (NCI-H226 lung): > 100 µM | GI50 (A549 NSCLC): 17.8 µM | TGI (A549 NSCLC): > 100 µM | GI50 (SK-MEL-28 melanoma): 79.2 µM | TGI (SK-MEL-28 melanoma): > 100 µM | GI50 (T-47D breast): 0.622 µM | TGI (T-47D breast): 31.6 µM | GI50 (HT29 colon): 90 µM | TGI (HT29 colon): > 100 µM | GI50 (SK-MEL-2 melanoma): 22.4 µM | TGI (SK-MEL-2 melanoma): 88.9 µM | GI50 (UO-31 renal): 22.2 µM | TGI (UO-31 renal): > 100 µM | GI50 (OVCAR-4 ovarian): 5.65 µM | TGI (OVCAR-4 ovarian): > 100 µM | GI50 (SK-OV-3 ovarian): 11.1 µM | TGI (SK-OV-3 ovarian): 46.3 µM | GI50 (SW-620 colon): 26 µM | TGI (SW-620 colon): > 100 µM | GI50 (RPMI-8226 leukemia): 0.994 µM | TGI (RPMI-8226 leukemia): 39.6 µM | GI50 (OVCAR-3 ovarian): 19.4 µM | TGI (OVCAR-3 ovarian): > 100 µM
